Data as given in article PMC10892719 (Pharmaceutics, 2024).

Target: T1, Aβ1-42 (Homo sapiens, UniProt P05067)
T1 construct: purchased Genecust, Boynes, France
Test: Inhibition of Aβ1-42 self-aggregation, thioflavin T fluorescence
Assay type: biochemical
Conditions: Cinhibitor = 20 µM, Aβ1-42 40 µM, 37 °C, 24 h, read-out: Aβ42 Self-Aggreg. Inhib
Experimental: The Aβ peptide (Genecust, Boynes, France) was treated with 1,1,1,3,3,3-hexafluoropropan-2-ol (HFIP, Aldrich, Steinheim, Germany) and dissolved in a CH3CN/Na2CO3 (300 µM)/NaOH (250 µM) ([…], v/v/v) mixture in order to have a stable stock solution of Aβ1-42 with concentration 500 µM.
Solutions of the assayed compounds (0.5 mg/mL) were firstly prepared in 60% (v/v) DMSO/MeOH medium and then diluted in phosphate buffer (0.215 M, pH 8.0) to a concentration of 120 µM. The Aβ1-42 aggregation inhibition assays were performed according to a reported method based on the fluorescence emission of thioflavin T (ThT, Aldrich Steinheim, Germany). Therefore, Aβ1-42 (40 µM) was incubated at 37 °C for 24 h in phosphate buffer and in the presence or absence of each ligand (20 µM). Then, the samples were added to a 96-well plate with 180 µL of 5 µM ThT in 50 mM glycine-NaOH (pH 8.5) buffer. Blank samples were identically prepared for each concentration but in the absence of the peptide. The ThT fluorescence was measured at 445 nm (excitation) and 485 nm (emission). The percent of aggregation inhibition was calculated by the following equation:I% = 100 − (IFi/IF0 × 100), in which IFi and IF0 are the fluorescence intensities, in the presence and the absence of the tested compound, subtracted from the fluorescence intensities due to the respective blanks. The reported values were obtained as the mean ± SEM of two different experiments performed in duplicate.
The inhibitory capacity of the RIV-IND hybrids towards Aβ42 self-aggregation was evaluated in vitro by molecular fluorescence spectroscopy through the thioflavin T (ThT) method. In fact, since there is an increase in the absorbance and emission of ThT when it binds to amyloid fibrils, it is possible to determine the percent of Aβ42 self-aggregation (see Table 1). The assays were performed in the presence of 20 µM of inhibitor to overcome the solubility limitations of some compounds in the phosphate buffer aqueous medium.

T1 sequence (P05067 672-713 limits assumed): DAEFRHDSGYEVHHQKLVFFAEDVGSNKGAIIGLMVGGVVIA

| Structure (SMILES) | inhibition at 20 µM |
| --- | --- |
| CCN(C)C(=O)Oc1cccc(CNC(=O)c2cc3ccccc3[nH]2)c1 [Compound 5b1, 3-((1H-indole-2-carboxamido)methyl)phenyl ethylmethylcarbamate] | 19.9% |
| CCN(C)C(=O)Oc1cccc(NC(=O)c2cc3cccc(O)c3[nH]2)c1 [Compound 5a3, 3-(7-Hydroxy-1H-indole-2-carboxamido)phenyl ethyl(methyl)carbamate] | 50.3% |
